Experimental data as given in ChEMBL document CHEMBL3779859, “Synergistic activity of a short lipidated antimicrobial peptide (lipoAMP) and colistin or tobramycin against Pseudomonas aeruginosa from cystic fibrosis patients” (Medchemcomm, 2016).
Values after ≈ are worked out from the molar mass of the structure shown. Each block holds one compound with its values, some of them ahead of it. Active and inactive are the calls of the source. The calls are words filed in the database; no cut-off is given here. Peptide text beside a SMILES is read from it. * marks the point of attachment. DEAC = CCN(CC)c1ccc2cc(C(=O)*)c(=O)oc2c1; Myristoyl = CCCCCCCCCCCCCC(=O)*; Lauroyl = CCCCCCCCCCCC(=O)*; Decanoyl = CCCCCCCCCC(=O)*; Octanoyl = CCCCCCCC(=O)*; Hexanoyl = CCCCCC(=O)*

Tests used:
Pseudomonas aeruginosa [1] = assay: Antibacterial activity against Pseudomonas aeruginosa LES431 clinical isolate after 16 to 20 hrs by microdilution assay; format: functional
Pseudomonas aeruginosa [2] = assay: Antibacterial activity against Pseudomonas aeruginosa VW1633 clinical isolate after 16 to 20 hrs by microdilution assay; format: functional
Pseudomonas aeruginosa [3] = assay: Antibacterial activity against Pseudomonas aeruginosa KD491 clinical isolate after 16 to 20 hrs by microdilution assay; format: functional
Pseudomonas aeruginosa [4] = assay: Antibacterial activity against Pseudomonas aeruginosa KD491 clinical isolate assessed as prolongation time of lag phase in bacterial growth curve at 0.25 ug/ml measured every 15 mins by microtiter plate reader method; format: functional, organism-based
Pseudomonas aeruginosa [5] = assay: Antibacterial activity against Pseudomonas aeruginosa Clone C clinical isolate assessed as inhibition of biofilm formation at 2 ug/ml after 18 to 22 hrs by crystal violet staining-based polystyrene microtiter plate reader method; format: functional, organism-based
Pseudomonas aeruginosa [6] = assay: Antibacterial activity against Pseudomonas aeruginosa VW1471 clinical isolate after 16 to 20 hrs by microdilution assay; format: functional
Pseudomonas aeruginosa [7] = assay: Antibacterial activity against Pseudomonas aeruginosa MIDLANDS clinical isolate after 16 to 20 hrs by microdilution assay; format: functional
Pseudomonas aeruginosa [8] = assay: Antibacterial activity against Pseudomonas aeruginosa kl 3.2 clinical isolate after 16 to 20 hrs by microdilution assay; format: functional
Pseudomonas aeruginosa [9] = assay: Antibacterial activity against Pseudomonas aeruginosa VW1485 clinical isolate after 16 to 20 hrs by microdilution assay; format: functional
Pseudomonas aeruginosa [10] = assay: Antibacterial activity against Pseudomonas aeruginosa PAO1 clinical isolate assessed as inhibition of biofilm formation at 2 ug/ml after 18 to 22 hrs by crystal violet staining-based polystyrene microtiter plate reader method; format: functional, organism-based
Pseudomonas aeruginosa [11] = assay: Antibacterial activity against Pseudomonas aeruginosa VW1540 clinical isolate after 16 to 20 hrs by microdilution assay; format: functional
Pseudomonas aeruginosa [12] = assay: Antibacterial activity against Pseudomonas aeruginosa PAO1 clinical isolate after 16 to 20 hrs by microdilution assay; format: functional
Pseudomonas aeruginosa [13] = assay: Antibacterial activity against Pseudomonas aeruginosa KD491 clinical isolate assessed as growth rate in exponential phase at 0.25 ug/ml measured every 15 mins by microtiter plate reader method; format: functional, organism-based
Pseudomonas aeruginosa [14] = assay: Antibacterial activity against Pseudomonas aeruginosa LESB58 clinical isolate assessed as prolongation of lag phase in bacterial growth curve at 2 ug/ml measured every 15 mins by microtiter plate reader method; format: functional, organism-based
Pseudomonas aeruginosa [15] = assay: Antibacterial activity against Pseudomonas aeruginosa D599 clinical isolate after 16 to 20 hrs by microdilution assay; format: functional
Pseudomonas aeruginosa [16] = assay: Antibacterial activity against Pseudomonas aeruginosa VW313 clinical isolate after 16 to 20 hrs by microdilution assay; format: functional
Pseudomonas aeruginosa [17] = assay: Antibacterial activity against Pseudomonas aeruginosa kl 1.1 clinical isolate after 16 to 20 hrs by microdilution assay; format: functional
Pseudomonas aeruginosa [18] = assay: Antibacterial activity against Pseudomonas aeruginosa LESB58 clinical isolate after 16 to 20 hrs by microdilution assay; format: functional
Pseudomonas aeruginosa [19] = assay: Antibacterial activity against Pseudomonas aeruginosa VW0247 clinical isolate after 16 to 20 hrs by microdilution assay; format: functional
Pseudomonas aeruginosa [20] = assay: Antibacterial activity against Pseudomonas aeruginosa KD557 clinical isolate after 16 to 20 hrs by microdilution assay; format: functional
Pseudomonas aeruginosa [21] = assay: Antibacterial activity against Pseudomonas aeruginosa VW1538 clinical isolate after 16 to 20 hrs by microdilution assay; format: functional
Pseudomonas aeruginosa [22] = assay: Antibacterial activity against Pseudomonas aeruginosa LES400 clinical isolate after 16 to 20 hrs by microdilution assay; format: functional
Pseudomonas aeruginosa [23] = assay: Antibacterial activity against Pseudomonas aeruginosa VW178 clinical isolate after 16 to 20 hrs by microdilution assay; format: functional
Pseudomonas aeruginosa [24] = assay: Antibacterial activity against Pseudomonas aeruginosa LESB58 clinical isolate assessed as growth rate in exponential phase at 2 ug/ml measured every 15 mins by microtiter plate reader method; format: functional, organism-based
Pseudomonas aeruginosa [25] = assay: Antibacterial activity against Pseudomonas aeruginosa Clone C clinical isolate after 16 to 20 hrs by microdilution assay; format: functional
Pseudomonas aeruginosa [26] = assay: Antibacterial activity against Pseudomonas aeruginosa VW1501 clinical isolate after 16 to 20 hrs by microdilution assay; format: functional

MIC (Pseudomonas aeruginosa [1]): 64 mg/L (≈ 47.2 µM)
MIC (Pseudomonas aeruginosa [2]): > 128 mg/L
MIC (Pseudomonas aeruginosa [3]): > 128 mg/L
Compound: CCCCCCCCCCCC(=O)N[C@@H](CCCNC(=N)N)C(=O)N[C@@H](Cc1c[nH]c2ccccc12)C(=O)N[C@@H](CCCNC(=N)N)C(=O)N[C@@H](Cc1c[nH]c2ccccc12)C(=O)N[C@@H](CCCNC(=N)N)C(=O)N[C@@H](Cc1c[nH]c2ccccc12)C(=O)N[C@@H](CCCCN)C(=O)O (Lauroyl-RWRWRWK-OH)

MIC (Pseudomonas aeruginosa [1]): > 128 mg/L
MIC (Pseudomonas aeruginosa [2]): 32 mg/L (≈ 25.2 µM)
MIC (Pseudomonas aeruginosa [3]): 64 mg/L (≈ 50.3 µM)
Compound: CCCCCC(=O)N[C@@H](CCCNC(=N)N)C(=O)N[C@@H](Cc1c[nH]c2ccccc12)C(=O)N[C@@H](CCCNC(=N)N)C(=O)N[C@@H](Cc1c[nH]c2ccccc12)C(=O)N[C@@H](CCCNC(=N)N)C(=O)N[C@@H](Cc1c[nH]c2ccccc12)C(=O)N[C@@H](CCCCN)C(=O)O (Hexanoyl-RWRWRWK-OH)

MIC (Pseudomonas aeruginosa [1]): 64 mg/L (≈ 49.2 µM)
MIC (Pseudomonas aeruginosa [2]): 32 mg/L (≈ 24.6 µM)
MIC (Pseudomonas aeruginosa [3]): 16 mg/L (≈ 12.3 µM)
Compound: CCCCCCCC(=O)N[C@@H](CCCNC(=N)N)C(=O)N[C@@H](Cc1c[nH]c2ccccc12)C(=O)N[C@@H](CCCNC(=N)N)C(=O)N[C@@H](Cc1c[nH]c2ccccc12)C(=O)N[C@@H](CCCNC(=N)N)C(=O)N[C@@H](Cc1c[nH]c2ccccc12)C(=O)N[C@@H](CCCCN)C(=O)O (Octanoyl-RWRWRWK-OH)

MIC (Pseudomonas aeruginosa [1]): > 128 mg/L
MIC (Pseudomonas aeruginosa [2]): 64 mg/L (≈ 45.2 µM)
MIC (Pseudomonas aeruginosa [3]): 64 mg/L (≈ 45.2 µM)
Compound: CCN(CC)c1ccc2cc(C(=O)NCCCC[C@H](NC(=O)[C@H](Cc3c[nH]c4ccccc34)NC(=O)[C@H](CCCNC(=N)N)NC(=O)[C@H](Cc3c[nH]c4ccccc34)NC(=O)[C@H](CCCNC(=N)N)NC(=O)[C@H](Cc3c[nH]c4ccccc34)NC(=O)[C@@H](N)CCCNC(=N)N)C(=O)O)c(=O)oc2c1 (H-RWRWRWK(DEAC)-OH)

MIC (Pseudomonas aeruginosa [6]): 4 mg/L
MIC (Pseudomonas aeruginosa [7]): 4 mg/L
MIC (Pseudomonas aeruginosa [8]): 8 mg/L
MIC (Pseudomonas aeruginosa [9]): > 128 mg/L
MIC (Pseudomonas aeruginosa [11]): 4 mg/L
MIC (Pseudomonas aeruginosa [12]): 4 mg/L
MIC (Pseudomonas aeruginosa [1]): 2 mg/L
MIC (Pseudomonas aeruginosa [15]): 4 mg/L
MIC (Pseudomonas aeruginosa [16]): 4 mg/L
MIC (Pseudomonas aeruginosa [17]): 4 mg/L
MIC (Pseudomonas aeruginosa [18]): 32 mg/L
MIC (Pseudomonas aeruginosa [19]): 2 mg/L
MIC (Pseudomonas aeruginosa [20]): 8 mg/L
MIC (Pseudomonas aeruginosa [2]): 2 mg/L
MIC (Pseudomonas aeruginosa [21]): 2 mg/L
MIC (Pseudomonas aeruginosa [22]): 4 mg/L
MIC (Pseudomonas aeruginosa [23]): 4 mg/L
MIC (Pseudomonas aeruginosa [3]): 2 mg/L
MIC (Pseudomonas aeruginosa [25]): 4 mg/L
MIC (Pseudomonas aeruginosa [26]): 2 mg/L
Compound: COLISTIN
TIME (Pseudomonas aeruginosa [4]): 4 h
inhibition (Pseudomonas aeruginosa [5]): < 20%
inhibition (Pseudomonas aeruginosa [10]): < 20%
Activity (Pseudomonas aeruginosa [13]): inactive
Activity (Pseudomonas aeruginosa [14]): Active
Activity (Pseudomonas aeruginosa [24]): inactive

MIC (Pseudomonas aeruginosa [1]): > 128 mg/L
MIC (Pseudomonas aeruginosa [2]): > 128 mg/L
MIC (Pseudomonas aeruginosa [3]): > 128 mg/L
Compound: CCCCCCCCCCCCCC(=O)N[C@@H](CCCNC(=N)N)C(=O)N[C@@H](Cc1c[nH]c2ccccc12)C(=O)N[C@@H](CCCNC(=N)N)C(=O)N[C@@H](Cc1c[nH]c2ccccc12)C(=O)N[C@@H](CCCNC(=N)N)C(=O)N[C@@H](Cc1c[nH]c2ccccc12)C(=O)N[C@@H](CCCCN)C(=O)O (Myristoyl-RWRWRWK-OH)

MIC (Pseudomonas aeruginosa [1]): 32 mg/L (≈ 24.1 µM)
MIC (Pseudomonas aeruginosa [2]): 64 mg/L (≈ 48.2 µM)
MIC (Pseudomonas aeruginosa [3]): 32 mg/L (≈ 24.1 µM)
Compound: CCCCCCCCCC(=O)N[C@@H](CCCNC(=N)N)C(=O)N[C@@H](Cc1c[nH]c2ccccc12)C(=O)N[C@@H](CCCNC(=N)N)C(=O)N[C@@H](Cc1c[nH]c2ccccc12)C(=O)N[C@@H](CCCNC(=N)N)C(=O)N[C@@H](Cc1c[nH]c2ccccc12)C(=O)N[C@@H](CCCCN)C(=O)O (Decanoyl-RWRWRWK-OH)
